In US9808439B2 (Macau University of Science and Technology, priority 2015, dated 2017):
pEC50, pIC50: −log10 of the molar value. “Also recorded” adds a separate entry of the source. Like-named read-outs stand apart in the source and are kept apart here.

Key:
A2780/T cells [1] = test: Combination index, Chou-Talalay method (CalcuSyn); assay type: cell-based, human; conditions: Homo sapiens, read-out: Dose tangeretin at Fa 0.5 (ED50), CalcuSyn simulation, alone or in combination
Procedure: Combination index (CI) was calculated to quantitatively depict synergistic ([…], additive (CI=1), or antagonistic (CI>1) effect. With the use of CalcuSyn software v. 2.1 (Bio-soft), synergy is further refined as synergism (combination index=0.3-0.7), strong synergism (combination index=0.1-0.3), and very strong synergism (combination index<0.1).

A2780/T cells [2] = test: Apoptosis by Annexin-V/PI double staining; assay type: cell-based, human
Procedure: After treatment, 1×10^6 cells were collected, washed and suspended in 100 μl of binding buffer (10 mM N-2-hydroxyethylpiperazine-N,-2-ethanesulfonic acid/NaOH, 140 mM NaCl, 2.5 mM CaCl2, pH 7.4). Apoptotic cells were identified by double supravital staining with 5 μl recombinant FITC (fluorescein isothiocyanate)-conjugated Annexin-V and 5 μl PI (50 μg/ml). The cells were stained for […] at room temperature in the dark, and analyzed by fluorescence-activated cell sorting cater-plus flow cytometry. Data acquisition and analysis were performed in BD FACS Aria with FlowJo software.

A2780/T cells [3] = test: Cell cycle analysis by flow cytometry in A2780/T; assay type: cell-based, human; conditions: tangeretin 7.53 μM alone
Procedure: A2780/T cells were harvested after 24-hours, 48-hour, or 72-hour treatment and washed twice with ice-cold PBS. The cells were fixed and permeabilized with 70% ice-cold ethanol overnight at 4° C. or −20° C. for 2 h. After one additional wash in PBS, cells were stained with a staining solution containing PI ([…]) and RNase A (250 μg/ml) for […] at room temperature. They were then pelleted, washed and suspended in PBS to a final concentration of 1×10^6/ml and analyzed by flow cytometry (BD FACS Aria, BD Biosciences, San Jose, Calif.).

A2780/T cells [4] = test: Intracellular accumulation of DOX and Flutax-2 in A2780/T; assay type: cell-based, human; conditions: 8 h, 7.53 μM tangeretin or 20 μM QND
Procedure: cells (5×10^6) were cultured on the cover glass (ISO LAB 20×20 mm). […] After treatment, cells were fixed in 4 wt % formaldehyde (Sigma-Aldrich). Nuclear DNA was stained with 1 μg/mL blue-fluorescent DAPI (1 mg/mL in H2O stock solution; Invitrogen D1306). One drop of fluorescent preservation solution (fluorsave reagent, CALBIOCHEM) was added before observation. Imaging was carried out for comparing the intracellular accumulation of DOX and flutax-2 with a Fluorescence Microscopy (Leica DM2500, Leica, Germany). […] Cells were detached, re-suspended in 500 μl of PBS after washed twice with cold PBS, and analyzed by flow cytometry (BD FACS Aria, BD Biosciences, San Jose, Calif.). Excitation and emission wavelengths (nm) used for DOX and flutax-2 were as follows: 480 to 585; and 496 to 524.

A2780 cells = test: Intracellular accumulation of DOX and Flutax-2 in A2780; assay type: cell-based, human; conditions: parental A2780, 7.53 μM tangeretin, 8 h
Procedure: A2780 or A2780/T cells (5×10^6) were cultured on the cover glass (ISO LAB 20×20 mm). […] After treatment, cells were fixed in 4 wt % formaldehyde (Sigma-Aldrich). Nuclear DNA was stained with 1 μg/mL blue-fluorescent DAPI (1 mg/mL in H2O stock solution; Invitrogen D1306). One drop of fluorescent preservation solution (fluorsave reagent, CALBIOCHEM) was added before observation. Imaging was carried out for comparing the intracellular accumulation of DOX and flutax-2 with a Fluorescence Microscopy (Leica DM2500, Leica, Germany).
Cells were detached, re-suspended in 500 μl of PBS after washed twice with cold PBS, and analyzed by flow cytometry (BD FACS Aria, BD Biosciences, San Jose, Calif.). Excitation and emission wavelengths (nm) used for DOX and flutax-2 were as follows: 480 to 585; and 496 to 524. Quinidine (QND, 20 μM), a known ABCB1 inhibitor, was used as a positive control.

[5] = target: T1, recombinant human ABCB1 membranes (Homo sapiens, UniProt P08183); test: ABCB1 ATPase activity assay (Pgp-Glo); assay type: biochemical
T1 construct: purchased Promega
Procedure: Sodium orthovanadate (Na3VO4) was used as an ABCB1 ATPase inhibitor. […] Luminescence was initiated by ATP detection buffer. The plate (white opaque 96-well, corning, USA) was further incubated at room temperature for […] to develop luminescent signal, and was read with luminometer (infinite M200 PRO,TECAN, Switzerland).

[6] = system: MDR1 mRNA / ABCB1 protein in A2780/T cells; test: RT-PCR and Western blot of ABCB1 expression; assay type: cell-based, human; conditions: tangeretin 0.83-7.53 μM, 48 hours
Procedure: RT-PCR was performed to evaluate MDR1 mRNA expression. mRNA from cell lysates were purified by binding to poly(dT) magnetic beads (Life technologies) and reverse transcribed by using SuperScript II (Life technologies). Standard quantitative RT-PCR was performed in duplicates at least two to three times by using SYBR Green (Molecular Probes) protocols on the ViiA™ 7 Real-Time PCR System (Life technologies). The primer sequences: 5′-[…]-3′ (SEQ ID […] NO:1) and 3′-[…]-5′ (SEQ ID NO:2) for MDR1, and 5′-[…]-3′ (SEQ ID NO:3) and 3′-[…]-[…]-5′ (SEQ ID NO:4) for control gene eukaryotic translation initiation factor (TIF). RT-PCR data was normalized by measuring average cycle threshold (Ct) ratios between candidate genes and control gene TIF.
The total cellular samples were harvested and rinsed twice with ice-cold PBS buffer. Cell extracts were lysed in RIPA buffer (50 mM Tris (pH 7.4), 150 mM NaCl, 1% Triton X-100, 1% sodium deoxycholate, 0.1% SDS, sodium orthovanadate, sodium fluoride and EDTA) containing protease inhibitor cocktails (Roche Life Science, USA). Protein concentration was determined using the BCA protein assay kit. Equal amounts of cell lysates were resolved by SDS-PAGE and subsequently electrophoretically transferred onto PVDF membranes (Millipore, Darmstadt, Germany). […]

p53 = test: Western blot of p53 expression; assay type: cell-based, human; conditions: tangeretin at various concentrations, 48 hours, Western blot
Procedure: The total cellular samples were harvested and rinsed twice with ice-cold PBS buffer. Cell extracts were lysed in RIPA buffer (50 mM Tris (pH 7.4), 150 mM NaCl, 1% Triton X-100, 1% sodium deoxycholate, 0.1% SDS, sodium orthovanadate, sodium fluoride and EDTA) containing protease inhibitor cocktails (Roche Life Science, USA). Protein concentration was determined using the BCA protein assay kit. Equal amounts of cell lysates were resolved by SDS-PAGE and subsequently electrophoretically transferred onto PVDF membranes (Millipore, Darmstadt, Germany). After blocking in tris-buffered saline containing 0.1% of Tween20 (TBST) with 5% (w/v) skim milk (Nestle Carnation, New Zealand) for 2 h at room temperature, the membranes were incubated with primary and secondary antibodies and subsequently visualized with an enhanced chemiluminescence detection kit (Thermo Scientific™ SuperSignal™ West Pico Chemiluminescent Substrate, USA). β-Actin was used as the loading control for the experimental data analysis.

[7] = target: P-gp (ABCB1 transporter) in Caco-2 cells (Homo sapiens, UniProt P08183)
[8] = human, plasma; cited from earlier work
[9] = rat, plasma; cited from earlier work
in vitro [10] = conditions: human, A2780/T cells
Procedure: (§1) Sulphorhodamine B (SRB) assays were carried out as previously described to assess cell density, based on sensitive measure of total cellular protein, which performed similarly compared with other proliferation assays such as MTT assay. Briefly, cells were seeded into flat bottomed 96-well plates at an initial density of 7.5×10^3 per well before treatment. […] After removing the medium, cells were fixed in 10% trichloroacetic acid for 1 h at 4° C. and then washed with water five times. 0.4% SRB dissolved in 1% v/v acetic acid was added and incubated 30 mm for staining. The cells were quickly washed with 1% acetic acid and left to dry overnight. The protein bound SRB was solubilized by adding 200 μl 10 mM Tris buffer per well and measured at wavelengths 490 nm using a plate reader (Spectra MAX 250; Molecular Devices, Sunnyvale, Calif.).

in vitro [11] = conditions: human, A2780 cells
A2780/T cells [12] = test: SRB cell cytotoxicity assay in A2780/T; conditions: tangeretin at 7.53 μM, all cell lines
Procedure: as §1

T1 sequence (P08183 whole entry): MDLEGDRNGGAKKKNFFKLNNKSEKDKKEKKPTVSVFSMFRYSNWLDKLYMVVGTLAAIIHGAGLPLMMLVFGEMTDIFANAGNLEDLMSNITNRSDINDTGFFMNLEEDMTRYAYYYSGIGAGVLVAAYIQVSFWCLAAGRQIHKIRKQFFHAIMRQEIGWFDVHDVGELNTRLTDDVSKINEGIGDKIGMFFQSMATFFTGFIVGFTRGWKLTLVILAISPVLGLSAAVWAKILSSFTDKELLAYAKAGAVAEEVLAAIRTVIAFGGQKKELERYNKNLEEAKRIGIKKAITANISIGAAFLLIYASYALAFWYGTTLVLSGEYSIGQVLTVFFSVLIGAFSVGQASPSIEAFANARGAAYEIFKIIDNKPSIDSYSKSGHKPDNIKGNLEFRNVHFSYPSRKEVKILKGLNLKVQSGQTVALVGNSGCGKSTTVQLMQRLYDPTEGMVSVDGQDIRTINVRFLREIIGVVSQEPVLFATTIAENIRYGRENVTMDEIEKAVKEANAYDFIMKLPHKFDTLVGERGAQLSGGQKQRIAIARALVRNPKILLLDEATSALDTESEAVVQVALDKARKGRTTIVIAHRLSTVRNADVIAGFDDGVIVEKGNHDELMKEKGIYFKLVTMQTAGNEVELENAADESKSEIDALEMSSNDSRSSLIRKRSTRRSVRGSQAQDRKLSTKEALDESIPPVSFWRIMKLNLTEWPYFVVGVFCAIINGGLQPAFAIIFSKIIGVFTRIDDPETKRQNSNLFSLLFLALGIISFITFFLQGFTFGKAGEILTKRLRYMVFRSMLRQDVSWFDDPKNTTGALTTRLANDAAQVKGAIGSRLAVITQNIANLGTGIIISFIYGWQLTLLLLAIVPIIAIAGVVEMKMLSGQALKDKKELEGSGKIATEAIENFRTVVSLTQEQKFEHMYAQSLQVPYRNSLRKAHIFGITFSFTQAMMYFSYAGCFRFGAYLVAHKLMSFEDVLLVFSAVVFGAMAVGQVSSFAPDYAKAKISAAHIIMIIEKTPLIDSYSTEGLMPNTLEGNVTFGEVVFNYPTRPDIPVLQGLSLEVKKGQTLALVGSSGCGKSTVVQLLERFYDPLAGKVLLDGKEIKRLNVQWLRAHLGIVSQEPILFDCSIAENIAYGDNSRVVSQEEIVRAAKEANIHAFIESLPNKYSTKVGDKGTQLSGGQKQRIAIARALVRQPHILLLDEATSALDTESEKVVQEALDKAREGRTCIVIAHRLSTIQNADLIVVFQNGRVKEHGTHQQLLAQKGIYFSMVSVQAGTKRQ
P-gp (ABCB1 transporter) in Caco-2 cells, sequence (P08183 whole entry): as above

pEC50 (A2780/T cells [1]): 4.17 | pIC50 ([5]; 200 μM verapamil, read-out: IC50 for inhibiting verapamil-stimulated P-gp ATPase activity): 5.10 | pEC50 ([5]; recombinant human ABCB1 membranes, 37° C., 40 min, read-out: EC50 for stimulating P-gp ATPase activity): 4.94 | maximal stimulation of ATPase activity ([5]; relative to the basal activity): 3 fold | inhibitory effect on efflux compared with 20 μM QND [7]: more potent than that of QND | inhibitory effect on efflux compared with 20 μM QND ([7]; human, 2 h, 2.51 μM): stronger than that of 20 μM QND | pIC50 (in vitro [10]): 4.44 | pIC50 (in vitro [11]): 4.45
SMILES: COc1ccc(-c2cc(=O)c3c(OC)c(OC)c(OC)c(OC)c3o2)cc1 [Tangeretin, 5,6,7,8,4′-pentamethoxyflavone]
apoptosis induction, single treatment (A2780/T cells [2]; 7.53 μM tangeretin or 0.94 μM PTX alone): did not show apoptosis induction | apoptosis induced by 0.94 μM PTX (A2780/T cells [2]; with 0.83, 2.51 and 7.53 μM tangeretin, A2780/T): significantly increase apoptosis | effect on the cell cycle (A2780/T cells [3]): no effect | intracellular accumulations of DOX and Flutax-2 (A2780/T cells [4]): remarkably enhanced; also recorded: higher than that of untreated A2780/T | DOX and Flutax-2 levels (A2780 cells): did not significantly alter; also recorded: no effect | mRNA or protein level of ABCB1 [6]: did not influence | mRNA or protein level of ABCB1 ([6]; listed as tangeretin): did not alter | p53 expression (p53): unregulated the p53 expression | Cmax [8]: 1000 to 5000 nM | Cmax [9]: 1000 to 5000 nM | cells survived (A2780/T cells [12]): more than 90%
